The source made the active and inactive calls. No cut-off for these calls is given here.
What was measured:
Thyrotropin receptor = Thyrotropin receptor (Homo sapiens, UniProt P16473); experiment: Antagonist activity at human thyroid stimulating hormone receptor expressed in rat HTC133 cells assessed as reduction in agonist-induced cAMP production preincubated for 20 mins followed by agonist solution addition and measured after 60 mins by cell based TR-FRET assay; type: functional
[1] = Apparent permeability across basolateral to apical side in human Caco2 cells at 2 uM after 2 hrs by LC-MS/MS analysis; type: ADME, cell-based; conditions: Caco-2
[2] = Clearance in rat liver microsomes at 1 uM measured after 2 to 60 mins in presence of glucose-6-phosphate by LC-MS/MS analysis; type: ADME, Microsome
[3] = Maximum oral bioavailability in Han Wistar rat hepatocytes at 1 uM measured after 2 to 90 mins by LC-MS/MS analysis; type: ADME, Hepatocyte; conditions: read-out: Fmax
Cytochrome P450 3A4 = Cytochrome P450 3A4 (Homo sapiens, UniProt P08684); experiment: Inhibition of CYP3A4 in human liver microsomes using midazolam as substrate treated prior to substrate addition by LC-MS/MS analysis; type: ADME
[4] = Half life in Wistar rat at 0.5 mg/kg, iv after 2 to 72 hrs by LC-MS/MS analysis; type: ADME, organism-based; conditions: in vivo
[5] = Dose normalized AUC in Wistar rat at 2 mg/kg, po after 8 to 72 hrs by LC-MS/MS analysis; type: ADME, organism-based; conditions: in vivo
[6] = target: T1, Adenosine receptor A2b (Homo sapiens) (UniProt P29275); experiment: Antagonist activity at human A2B receptor expressed in HEK293 cells at 10 uM after 10 mins by HTRF assay relative to control; type: cell-based; design: scale not given: the % may be the effect or the level left
T1 sequence (whole entry): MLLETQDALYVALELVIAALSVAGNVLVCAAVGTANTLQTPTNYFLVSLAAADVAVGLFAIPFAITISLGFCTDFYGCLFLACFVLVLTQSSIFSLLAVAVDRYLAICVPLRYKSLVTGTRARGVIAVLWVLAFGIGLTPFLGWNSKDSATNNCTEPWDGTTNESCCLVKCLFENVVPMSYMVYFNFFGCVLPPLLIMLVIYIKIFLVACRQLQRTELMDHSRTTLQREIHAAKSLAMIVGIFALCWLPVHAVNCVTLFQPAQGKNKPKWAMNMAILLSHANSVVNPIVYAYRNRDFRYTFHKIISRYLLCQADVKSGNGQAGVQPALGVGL

[7] = target: T2, Alpha-2A adrenergic receptor (Homo sapiens) (UniProt P08913); experiment: Agonist activity at human alpha2A adrenergic receptor expressed in Chem-1 cells at 10 uM by fluorimetric method relative to control; type: cell-based
T2 sequence (whole entry): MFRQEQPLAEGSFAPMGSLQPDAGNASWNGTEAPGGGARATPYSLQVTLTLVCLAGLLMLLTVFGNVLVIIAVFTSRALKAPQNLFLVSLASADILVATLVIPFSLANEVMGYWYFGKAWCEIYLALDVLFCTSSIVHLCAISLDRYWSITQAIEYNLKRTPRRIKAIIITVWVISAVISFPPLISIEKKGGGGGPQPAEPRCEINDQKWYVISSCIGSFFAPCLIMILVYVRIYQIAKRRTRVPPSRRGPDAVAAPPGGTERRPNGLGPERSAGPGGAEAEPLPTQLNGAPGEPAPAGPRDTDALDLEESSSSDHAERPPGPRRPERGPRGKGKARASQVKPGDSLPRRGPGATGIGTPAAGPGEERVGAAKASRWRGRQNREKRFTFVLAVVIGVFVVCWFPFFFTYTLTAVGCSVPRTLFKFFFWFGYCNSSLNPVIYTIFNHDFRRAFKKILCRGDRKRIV

[8] = target: Histamine H1 receptor (Homo sapiens) (UniProt P35367); experiment: Agonist activity at human histamine H1 receptor expressed in HEK293 cells at 10 uM by Fluorimetric method relative to control; type: cell-based
[9] = target: Histamine H2 receptor (Homo sapiens) (UniProt P25021); experiment: Agonist activity at human histamine H2 receptor expressed in CHO-K1 cells at 10 uM after 30 mins by HTRF assay relative to control; type: cell-based
[10] = target: T3, Muscarinic acetylcholine receptor M1 (Homo sapiens) (UniProt P11229); experiment: Antagonist activity at human muscarinic M1 receptor expressed in CHO-K1 cells at 10 uM by fluorimetric method relative to control; type: cell-based; design: scale not given: the % may be the effect or the level left
T3 sequence (whole entry): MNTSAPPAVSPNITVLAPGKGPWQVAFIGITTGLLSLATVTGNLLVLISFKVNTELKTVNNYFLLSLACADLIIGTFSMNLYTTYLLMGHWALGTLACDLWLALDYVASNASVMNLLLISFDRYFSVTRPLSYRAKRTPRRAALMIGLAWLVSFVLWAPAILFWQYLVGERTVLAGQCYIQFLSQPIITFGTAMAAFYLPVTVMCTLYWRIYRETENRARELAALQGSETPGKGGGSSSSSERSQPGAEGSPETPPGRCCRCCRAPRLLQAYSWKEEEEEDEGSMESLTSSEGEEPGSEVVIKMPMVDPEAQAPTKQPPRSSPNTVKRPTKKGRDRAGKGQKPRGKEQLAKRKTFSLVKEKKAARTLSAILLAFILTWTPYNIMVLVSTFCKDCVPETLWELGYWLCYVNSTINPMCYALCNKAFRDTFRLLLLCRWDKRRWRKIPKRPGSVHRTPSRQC

[11] = target: Mu-type opioid receptor (Homo sapiens) (UniProt P35372); experiment: Agonist activity at human mu opioid receptor expressed in CHO-K1 cells at 10 uM after 10 mins by HTRF assay relative to control; type: cell-based
[12] = target: T4, Prostaglandin E2 receptor EP3 subtype (Homo sapiens) (UniProt P43115); experiment: Antagonist activity at human EP3 receptor expressed in […] cells at 10 uM by spectrophotometric method relative to control; type: cell-based; design: scale not given: the % may be the effect or the level left
T4 sequence (whole entry): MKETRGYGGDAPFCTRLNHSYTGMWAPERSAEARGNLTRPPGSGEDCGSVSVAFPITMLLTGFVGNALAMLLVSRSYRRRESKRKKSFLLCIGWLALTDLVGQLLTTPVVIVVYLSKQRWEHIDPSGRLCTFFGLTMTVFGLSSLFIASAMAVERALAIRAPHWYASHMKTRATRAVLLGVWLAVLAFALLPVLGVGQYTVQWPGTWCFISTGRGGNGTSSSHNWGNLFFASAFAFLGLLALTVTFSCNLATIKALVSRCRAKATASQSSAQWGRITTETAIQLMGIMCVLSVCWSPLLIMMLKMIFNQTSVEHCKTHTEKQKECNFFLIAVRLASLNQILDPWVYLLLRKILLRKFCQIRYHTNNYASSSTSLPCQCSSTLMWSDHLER

[13] = target: P2Y purinoceptor 2 (Homo sapiens) (UniProt P41231); experiment: Antagonist activity at human P2Y2 receptor expressed in human 1321N1 cells at 10 uM by fluorimetric method relative to control; type: cell-based; design: scale not given: the % may be the effect or the level left
[14] = target: Somatostatin receptor type 4 (Homo sapiens) (UniProt P31391); experiment: Agonist activity at human sst4 expressed in CHO-K1 cells at 10 uM after 10 mins by HTRF assay relative to control; type: cell-based
Rattus norvegicus = experiment: Induction of long-term effect on estrus cycle in 4 day cycle of normally cycling female rat assessed as changes in vaginal smears at 12.5 mg/kg, po administered once daily for 8 days; type: functional, organism-based
[15] = Plasma concentration in female rat at 12.5 mg/kg, po administered once daily for 8 days and measured on day 8; type: ADME, organism-based

Histamine H1 receptor (Homo sapiens), sequence (P35367 whole entry): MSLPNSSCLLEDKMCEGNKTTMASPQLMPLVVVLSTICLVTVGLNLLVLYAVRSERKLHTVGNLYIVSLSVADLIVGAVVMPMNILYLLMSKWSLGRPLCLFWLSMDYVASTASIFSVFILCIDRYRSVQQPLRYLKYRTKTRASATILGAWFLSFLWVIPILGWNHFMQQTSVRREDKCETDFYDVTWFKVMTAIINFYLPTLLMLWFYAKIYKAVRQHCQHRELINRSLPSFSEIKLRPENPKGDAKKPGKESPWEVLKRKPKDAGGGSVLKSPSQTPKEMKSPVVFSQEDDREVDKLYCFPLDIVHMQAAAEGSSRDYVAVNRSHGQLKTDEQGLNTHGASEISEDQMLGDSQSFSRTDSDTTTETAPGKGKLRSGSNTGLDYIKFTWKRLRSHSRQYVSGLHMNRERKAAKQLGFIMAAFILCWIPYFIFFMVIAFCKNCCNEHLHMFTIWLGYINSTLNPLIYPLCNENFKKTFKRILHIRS
Mu-type opioid receptor (Homo sapiens), sequence (P35372 whole entry): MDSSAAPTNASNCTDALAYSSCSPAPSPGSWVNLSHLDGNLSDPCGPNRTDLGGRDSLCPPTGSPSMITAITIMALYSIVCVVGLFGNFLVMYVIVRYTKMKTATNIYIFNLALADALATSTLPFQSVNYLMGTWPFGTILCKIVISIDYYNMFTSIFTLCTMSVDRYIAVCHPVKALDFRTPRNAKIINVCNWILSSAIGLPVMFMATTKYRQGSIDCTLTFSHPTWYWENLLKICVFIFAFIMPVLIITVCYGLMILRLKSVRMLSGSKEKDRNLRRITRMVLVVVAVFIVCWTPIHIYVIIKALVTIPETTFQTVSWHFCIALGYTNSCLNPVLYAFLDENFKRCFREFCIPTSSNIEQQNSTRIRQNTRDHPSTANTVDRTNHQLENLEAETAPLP
Histamine H2 receptor (Homo sapiens), sequence (P25021 whole entry): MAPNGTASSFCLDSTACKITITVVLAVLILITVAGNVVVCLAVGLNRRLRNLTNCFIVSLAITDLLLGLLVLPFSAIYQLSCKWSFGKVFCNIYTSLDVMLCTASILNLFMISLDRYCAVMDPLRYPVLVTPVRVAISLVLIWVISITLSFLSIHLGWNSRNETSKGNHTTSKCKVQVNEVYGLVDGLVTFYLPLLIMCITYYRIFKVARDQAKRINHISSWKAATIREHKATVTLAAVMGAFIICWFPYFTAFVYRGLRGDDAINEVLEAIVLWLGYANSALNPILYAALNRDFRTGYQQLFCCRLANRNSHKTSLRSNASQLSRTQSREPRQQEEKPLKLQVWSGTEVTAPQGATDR
P2Y purinoceptor 2 (Homo sapiens), sequence (P41231 whole entry): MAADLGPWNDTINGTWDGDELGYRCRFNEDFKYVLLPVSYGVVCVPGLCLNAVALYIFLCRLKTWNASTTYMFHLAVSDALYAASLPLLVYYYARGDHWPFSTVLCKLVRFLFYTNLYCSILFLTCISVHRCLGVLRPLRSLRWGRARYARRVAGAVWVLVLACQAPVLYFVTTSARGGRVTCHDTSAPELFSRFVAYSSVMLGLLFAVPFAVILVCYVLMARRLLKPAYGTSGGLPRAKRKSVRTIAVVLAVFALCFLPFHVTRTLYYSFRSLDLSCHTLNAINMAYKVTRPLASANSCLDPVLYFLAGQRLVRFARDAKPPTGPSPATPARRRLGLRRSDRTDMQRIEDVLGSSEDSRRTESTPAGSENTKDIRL
Somatostatin receptor type 4 (Homo sapiens), sequence (P31391 whole entry): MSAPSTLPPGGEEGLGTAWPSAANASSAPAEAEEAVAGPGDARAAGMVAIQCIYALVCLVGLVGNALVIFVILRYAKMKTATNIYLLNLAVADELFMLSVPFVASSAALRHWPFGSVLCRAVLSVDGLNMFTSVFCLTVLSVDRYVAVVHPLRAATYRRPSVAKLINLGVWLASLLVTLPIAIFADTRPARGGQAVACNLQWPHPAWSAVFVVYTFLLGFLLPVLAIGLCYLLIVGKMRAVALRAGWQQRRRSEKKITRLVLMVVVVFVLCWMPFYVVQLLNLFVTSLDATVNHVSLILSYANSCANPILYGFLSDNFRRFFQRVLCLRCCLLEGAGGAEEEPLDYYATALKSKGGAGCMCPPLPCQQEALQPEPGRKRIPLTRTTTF
Thyrotropin receptor, sequence (P16473 whole entry): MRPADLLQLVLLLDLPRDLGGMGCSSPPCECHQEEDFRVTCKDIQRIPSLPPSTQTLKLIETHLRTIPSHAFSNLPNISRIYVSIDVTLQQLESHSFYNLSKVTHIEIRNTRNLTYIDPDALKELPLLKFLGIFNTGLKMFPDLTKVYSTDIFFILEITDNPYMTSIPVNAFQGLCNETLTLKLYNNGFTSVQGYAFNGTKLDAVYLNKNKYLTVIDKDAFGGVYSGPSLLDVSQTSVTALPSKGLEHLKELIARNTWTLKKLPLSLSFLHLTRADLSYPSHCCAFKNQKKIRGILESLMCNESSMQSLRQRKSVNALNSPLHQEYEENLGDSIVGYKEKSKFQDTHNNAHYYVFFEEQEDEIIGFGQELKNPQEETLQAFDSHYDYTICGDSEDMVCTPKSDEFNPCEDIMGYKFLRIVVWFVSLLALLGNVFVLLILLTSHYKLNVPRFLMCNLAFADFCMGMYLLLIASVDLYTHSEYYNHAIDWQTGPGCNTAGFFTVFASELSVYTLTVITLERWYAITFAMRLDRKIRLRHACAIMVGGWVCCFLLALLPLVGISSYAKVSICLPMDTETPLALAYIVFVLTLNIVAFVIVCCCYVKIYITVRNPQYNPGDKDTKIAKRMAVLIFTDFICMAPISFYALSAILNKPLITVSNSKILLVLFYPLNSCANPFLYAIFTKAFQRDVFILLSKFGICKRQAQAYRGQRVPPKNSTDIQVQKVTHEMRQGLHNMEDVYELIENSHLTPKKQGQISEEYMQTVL
Cytochrome P450 3A4, sequence (P08684 whole entry): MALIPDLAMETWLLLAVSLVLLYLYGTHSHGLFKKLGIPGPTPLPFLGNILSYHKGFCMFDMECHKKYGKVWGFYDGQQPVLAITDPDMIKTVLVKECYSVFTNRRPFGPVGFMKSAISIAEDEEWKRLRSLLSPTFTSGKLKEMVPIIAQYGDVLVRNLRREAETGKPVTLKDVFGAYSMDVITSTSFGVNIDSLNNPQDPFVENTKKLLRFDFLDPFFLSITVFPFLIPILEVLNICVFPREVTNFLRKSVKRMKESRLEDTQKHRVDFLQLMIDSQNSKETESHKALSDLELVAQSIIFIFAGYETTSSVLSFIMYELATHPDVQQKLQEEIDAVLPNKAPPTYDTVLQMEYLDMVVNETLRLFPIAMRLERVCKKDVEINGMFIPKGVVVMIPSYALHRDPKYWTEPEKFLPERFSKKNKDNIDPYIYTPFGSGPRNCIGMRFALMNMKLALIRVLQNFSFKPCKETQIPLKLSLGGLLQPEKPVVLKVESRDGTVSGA

Row | IC50 (Thyrotropin receptor) [µM] | Papp B→A at 2 h, 2 µM [1] [×10⁻⁶ cm/s] | CLH [2] [mL/min/kg] | Fh at 1 µM [3] [%] | IC50 (Cytochrome P450 3A4) [µM] | half-life [4] [h] | AUC/dose [5] [kg·h/L] | Activity [6] [%] | Activity [7] [%] | Activity [8] [%] | Activity [9] [%] | Activity [10] [%] | Activity [11] [%] | Activity [12] [%] | Activity [13] [%] | Activity [14] [%] | concentration at 192 h [15] [µM] | Structure (SMILES) | Activity (Rattus norvegicus)
1 | 24 | 9.5 | 3.3 | 68 | > 20 | 31 | 2.7 | < 70 | < 70 | < 70 | < 70 | < 70 | < 70 | < 70 | < 70 | < 70 | 34 | O=C(Nc1cnc(Oc2ccc(F)cc2)nc1)N1CCc2ncccc2[C@@H]1c1ccc(F)cc1 [BAY-899] | Active
2 | 2.3 | 2 | 3.3 | 74 | > 20 | 11 | 7.8 | < 70 | < 70 | < 70 | < 70 | < 70 | < 70 | < 70 | < 70 | < 70 | 7 | O=C(Nc1ccc(Oc2ccc(F)cc2)cc1)N1CCc2ncccc2[C@@H]1c1ccc(Cl)cc1 | Active

Reference: ChEMBL document CHEMBL4321836, “Discovery of BAY-298 and BAY-899: Tetrahydro-1,6-naphthyridine-Based, Potent, and Selective Antagonists of the Luteinizing Hormone Receptor Which Reduce Sex Hormone Levels in Vivo” (J Med Chem, 2019)
